In ChEMBL document CHEMBL1134913, “Novel substituted 4-aminomethylpiperidines as potent and selective human beta3-agonists. Part 1: aryloxypropanolaminomethylpiperidines” (Bioorg Med Chem Lett, 2002):

What was measured:
[1] = biological target: T1, Beta-2 adrenergic receptor (Homo sapiens, UniProt P07550); test: In vitro agonist activity measured by increase in cAMP levels in chinese hamster ovary cells (CHO) cells expressing human Beta-2 adrenergic receptor; assay type: functional, cell-based
[2] = biological target: T2, Beta-1 adrenergic receptor (Homo sapiens, UniProt P08588); test: In vitro agonist activity measured by increase in cAMP levels in chinese hamster ovary cells (CHO) cells expressing human Beta-1 adrenergic receptor; assay type: functional, cell-based
Target sequence in this assay (P08588 whole entry): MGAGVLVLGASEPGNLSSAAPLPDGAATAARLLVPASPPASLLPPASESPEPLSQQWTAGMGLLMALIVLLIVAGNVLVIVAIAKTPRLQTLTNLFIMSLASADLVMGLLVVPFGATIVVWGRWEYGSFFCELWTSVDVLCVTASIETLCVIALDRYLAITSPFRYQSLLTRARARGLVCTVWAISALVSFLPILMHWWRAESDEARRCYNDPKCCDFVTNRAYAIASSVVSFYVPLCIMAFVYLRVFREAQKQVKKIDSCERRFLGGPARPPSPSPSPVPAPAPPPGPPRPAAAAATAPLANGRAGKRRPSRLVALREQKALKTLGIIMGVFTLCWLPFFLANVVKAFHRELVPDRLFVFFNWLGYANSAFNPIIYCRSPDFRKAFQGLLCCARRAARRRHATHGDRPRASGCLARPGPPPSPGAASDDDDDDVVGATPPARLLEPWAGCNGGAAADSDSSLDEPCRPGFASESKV

[3] = biological target: T2, Beta-1 adrenergic receptor; test: Intrinsic activity (IA) for Beta-1 adrenoceptor agonism was determined as the maximal response with respect to the maximal response of isoproterenol at […].; assay type: functional
Target sequence in this assay (P08588 whole entry, looked up): as the sequence (P08588 whole entry) above

[4] = biological target: T1, Beta-2 adrenergic receptor; test: (§1) Compound was tested for the antagonistic activity against Beta-2 adrenergic receptor; assay type: functional
[5] = biological target: T2, Beta-1 adrenergic receptor; test: Compound was tested for the antagonistic activity against Beta-1 adrenergic receptor; assay type: functional
Target sequence in this assay (P08588 whole entry): as above

Mus musculus = test: In vivo activity of compound with an increase in thermogenesis in the Beta 3 transgenic mice at an ip dose of 10 mg/kg was determined; assay type: functional; details: route intraperitoneal
[6] = biological target: T1, Beta-2 adrenergic receptor; test: as §1
[7] = biological target: T1, Beta-2 adrenergic receptor; test: In vitro agonist activity by increase in cAMP levels in chinese hamster ovary cells (CHO) cells stimulated by human Beta-2 Adrenoceptor; assay type: functional, cell-based
[8] = biological target: T3, Beta-3 adrenergic receptor (Homo sapiens, UniProt P13945); test: Intrinsic activity (IA) for Beta-3 adrenoceptor agonism was determined as the maximal response with respect to the maximal response of isoproterenol at […].; assay type: functional
Target sequence in this assay (P13945 whole entry, looked up): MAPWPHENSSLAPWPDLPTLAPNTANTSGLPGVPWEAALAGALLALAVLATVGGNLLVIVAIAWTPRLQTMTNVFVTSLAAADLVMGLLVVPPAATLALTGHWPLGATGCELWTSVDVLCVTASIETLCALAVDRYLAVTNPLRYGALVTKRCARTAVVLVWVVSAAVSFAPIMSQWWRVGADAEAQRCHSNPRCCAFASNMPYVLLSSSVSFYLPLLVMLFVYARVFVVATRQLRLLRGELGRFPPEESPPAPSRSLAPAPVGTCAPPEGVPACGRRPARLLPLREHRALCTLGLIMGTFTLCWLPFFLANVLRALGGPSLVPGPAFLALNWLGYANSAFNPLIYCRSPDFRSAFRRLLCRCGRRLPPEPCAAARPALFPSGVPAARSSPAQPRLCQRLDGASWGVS

[9] = biological target: T2, Beta-1 adrenergic receptor; test: In vitro agonist activity by increase in cAMP levels in chinese hamster ovary cells (CHO) cells stimulated by human Beta-1 Adrenoceptor was determined; assay type: functional, cell-based
Target sequence in this assay (P08588 whole entry): as the sequence (P08588 whole entry) above

[10] = biological target: T3, Beta-3 adrenergic receptor; test: In vitro agonist activity by increase in cAMP levels in chinese hamster ovary cells (CHO) cells stimulated by human Beta-3 Adrenoceptor was determined; assay type: functional, cell-based
Target sequence in this assay (P13945 whole entry): as the sequence (P13945 whole entry, looked up) above

[11] = biological target: T3, Beta-3 adrenergic receptor; test: In vitro agonist activity by increase in cAMP levels in chinese hamster ovary cells (CHO) cells stimulated by human Beta-3 adrenergic receptor was determined; IA is inactive; assay type: functional, cell-based
Target sequence in this assay (P13945 whole entry): as the sequence (P13945 whole entry, looked up) above

[12] = biological target: T3, Beta-3 adrenergic receptor; test: Intrinsic activity (IA) for Beta-3 adrenergic receptor agonism was determined as the maximal response with respect to the maximal response of isoproterenol at […].
Target sequence in this assay (P13945 whole entry, looked up): as above

T1 sequence (P07550 whole entry): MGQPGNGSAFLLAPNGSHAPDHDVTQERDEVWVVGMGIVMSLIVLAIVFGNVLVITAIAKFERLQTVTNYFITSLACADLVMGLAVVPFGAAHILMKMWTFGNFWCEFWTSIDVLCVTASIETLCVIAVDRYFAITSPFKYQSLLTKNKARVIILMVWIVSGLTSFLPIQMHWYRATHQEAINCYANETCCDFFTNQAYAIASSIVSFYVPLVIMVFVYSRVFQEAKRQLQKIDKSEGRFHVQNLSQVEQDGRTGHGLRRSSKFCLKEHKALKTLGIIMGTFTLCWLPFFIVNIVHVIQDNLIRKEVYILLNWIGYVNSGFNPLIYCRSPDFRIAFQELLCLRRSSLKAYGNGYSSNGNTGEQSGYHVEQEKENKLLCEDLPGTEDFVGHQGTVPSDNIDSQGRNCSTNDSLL

| SMILES | EC50 [1] [nM] | EC50 [2] [nM] | also measured |
| --- | --- | --- | --- |
| O[C@@H](CNCC1CCN(CCC(F)(F)F)CC1)COc1cccc2[nH]c3ccccc3c12 | > 1000 | 417 |  |
| CS(=O)(=O)Nc1cc(OC[C@@H](O)CNCC2CCN(S(=O)(=O)c3ccc(NC(=O)NCc4cc(F)ccc4F)cc3)CC2)ccc1O | 454 | 353 | Intrinsic activity [3]: 0.49; IC50 [4]: 268 nM; IC50 [5]: 6160 nM; Thermogenesis (Mus musculus): 18 |
| CCCCCCCCNC(=O)Nc1ccc(S(=O)(=O)N2CCC(CNC[C@H](O)COc3ccc(O)cc3)CC2)cc1 |  | 887 | IC50 [6]: 4 nM; IC50 [5]: 27 nM; Thermogenesis (Mus musculus): 30 |
| CCCCCCNC(=O)Nc1ccc(S(=O)(=O)N2CCC(CNC[C@H](O)COc3ccc(O)cc3)CC2)cc1 |  | 10900 |  |
| O=C(Nc1ccc(S(=O)(=O)N2CCC(CNC[C@H](O)COc3ccc(O)cc3)CC2)cc1)NC1CCCCC1 |  | 1020 |  |
| O=C(NCCCc1cccs1)Nc1ccc(S(=O)(=O)N2CCC(CNC[C@H](O)COc3ccc(O)cc3)CC2)cc1 |  | 2050 |  |
| O=C(NCc1cc(F)ccc1F)Nc1ccc(S(=O)(=O)N2CCC(CNC[C@H](O)COc3ccc(O)c(F)c3)CC2)cc1 |  | 525 |  |
| CCCCCCCCNC(=O)Nc1ccc(S(=O)(=O)N2CCC(CNC[C@H](O)COc3ccc(O)c4c3CCC(=O)N4)CC2)cc1 | 680 | 390 | Intrinsic activity [3]: 0.63 |
| O=C(Nc1ccccc1)Nc1ccc(S(=O)(=O)N2CCC(CNC[C@H](O)COc3ccc(O)cc3)CC2)cc1 |  | 489 |  |
| O=C(O)c1cccc(NC(=O)N2CCC(CNC[C@H](O)COc3cccc4[nH]c5ccccc5c34)CC2)c1 |  |  | EC50 [7]: > 1000 nM; Intrinsic activity [8]: 0.29; Intrinsic activity [3]: 0.05; EC50 [9]: > 1000 nM; EC50 [10]: 70 nM |
| O[C@@H](CNCC1CCN(c2ncccc2C(F)(F)F)CC1)COc1cccc2[nH]c3ccccc3c12 |  |  | EC50 [11]: Not Active; EC50 [12]: Not Active |

More lines, main results first:

| EC50 [1] [nM] | EC50 [2] [nM] | SMILES | also measured |
| --- | --- | --- | --- |
| > 1000 | > 1000 | CCCCCCN1CCC(CNC[C@H](O)COc2cccc3[nH]c4ccccc4c23)CC1 |  |
|  | 1010 | O=C(NCc1cc(F)ccc1F)Nc1ccc(S(=O)(=O)N2CCC(CNC[C@H](O)COc3ccc(O)cc3)CC2)cc1 |  |
| > 1000 | > 1000 | CCCCCCNC(=O)Nc1ccc(S(=O)(=O)N2CCC(CNC[C@H](O)COc3cccc4[nH]c5ccccc5c34)CC2)cc1 |  |
